Source: patent US9255100B2 (BAYER INTELLECTUAL PROPERTY GMBH, priority 2010, dated 2016)

These molecules were tested against T1, N-terminally GST-tagged human full length recombinant Mps-1 kinase (Homo sapiens, UniProt P33981) (assay: Mps-1 kinase assay (TR-FRET)). Conditions: Mps1 IC50 [nM], 10 μM ATP, 1 μM peptide substrate, 60 min at 22° C.
T1 construct: N-terminally GST-tagged human full length recombinant Mps-1 kinase; purchased Invitrogen, Karslruhe, Germany PV4071
T1 sequence (P33981 1-857): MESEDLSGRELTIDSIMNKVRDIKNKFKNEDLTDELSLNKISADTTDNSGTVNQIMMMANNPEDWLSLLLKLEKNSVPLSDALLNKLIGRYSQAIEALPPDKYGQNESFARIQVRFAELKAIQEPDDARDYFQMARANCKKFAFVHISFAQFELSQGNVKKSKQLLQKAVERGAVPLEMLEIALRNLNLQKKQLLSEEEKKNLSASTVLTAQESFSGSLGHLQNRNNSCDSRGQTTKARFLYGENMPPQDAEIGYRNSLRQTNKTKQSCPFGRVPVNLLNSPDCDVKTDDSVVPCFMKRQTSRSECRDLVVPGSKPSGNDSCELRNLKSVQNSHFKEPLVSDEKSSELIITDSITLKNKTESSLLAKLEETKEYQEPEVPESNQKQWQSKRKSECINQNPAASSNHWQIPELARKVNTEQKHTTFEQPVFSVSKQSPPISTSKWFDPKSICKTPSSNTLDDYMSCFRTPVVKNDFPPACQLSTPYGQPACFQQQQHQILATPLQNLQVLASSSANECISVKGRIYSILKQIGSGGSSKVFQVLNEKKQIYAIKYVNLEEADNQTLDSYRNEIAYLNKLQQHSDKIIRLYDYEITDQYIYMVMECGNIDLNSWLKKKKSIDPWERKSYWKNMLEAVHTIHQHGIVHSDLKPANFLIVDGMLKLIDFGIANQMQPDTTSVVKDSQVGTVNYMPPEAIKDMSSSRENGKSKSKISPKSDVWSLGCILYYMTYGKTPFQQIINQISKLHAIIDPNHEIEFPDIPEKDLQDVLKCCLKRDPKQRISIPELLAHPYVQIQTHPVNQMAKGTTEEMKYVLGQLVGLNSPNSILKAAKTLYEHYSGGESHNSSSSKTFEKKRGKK
Type: biochemical
How it was run: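 GST-tagged full-length recombinant Mps-1 at about 1 nM final, adjusted per lot for linear range, phosphorylated a biotinylated peptide. Product bound Eu-anti-phospho(Ser/Thr) antibody over 1 h at 22° C and was read by TR-FRET to streptavidin-XLent. Compounds scored for kinase inhibition.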

IC50 [nM]	Compound
1	Cc1cc(-c2cnc3c(NCCC(F)(F)F)cc(O/C=C(/F)C(F)(F)CO)nn23)ccc1C(=O)NC1CC1 [Example 278B, N-cyclopropyl-2-methyl-4-(6-{[(1E)-2,3,3-trifluoro-4-hydroxybut-1-en-1-yl]oxy}-8-[(3,3,3-trifluoropropyl)amino]imidazo[1,2-b]pyridazin-3-yl)benzamide]
0.3	Cc1cc(-c2cnc3c(NCC4CCSCC4)cc(Oc4ccc(F)cc4)nn23)ccc1C(=O)NC1CC1 [Example 290, N-cyclopropyl-4-{6-(4-fluorophenoxy)-8-[(tetrahydro-2H-thiopyran-4-ylmethyl)amino]imidazo[1,2-b]pyridazin-3-yl}-2-methylbenzamide]
1.1	OCc1cccc(-c2cc(NCCC(F)(F)F)c3ncc(-c4ccc(C(=S)NC5CC5)cc4)n3n2)c1 [Example 46, N-cyclopropyl-4-{6-[3-(hydroxymethyl)phenyl]-8-[(3,3,3-trifluoropropyl)amino]imidazo[1,2-b]pyridazin-3-yl}benzenecarbothioamide]
0.2	Cc1ccc(Sc2cc(NCC(C)(C)O)c3ncc(-c4ccc(C(=O)NC5CC5)c(C)c4)n3n2)cc1F [Example 66, N-cyclopropyl-4-{6-[(3-fluoro-4-methylphenyl)sulfanyl]-8-[(2-hydroxy-2-methylpropyl)amino]imidazo[1,2-b]pyridazin-3-yl}-2-methylbenzamide]
0.2	Cc1cc(-c2cnc3c(NCCN4CCOCC4)cc(N(C)c4ccccc4O)nn23)ccc1C(=O)NC1CC1 [Example 539, N-cyclopropyl-4-(6-[(2-hydroxy-phenyl)(methyl)amino]-8-{[2-(morpholin-4-yl)ethyl]amino}imidazo[1,2-b]pyridazin-3-yl)-2-methylbenzamide]
21.1	CC(C)(O)CNc1cc(C2=CCCCC2)nn2c(-c3ccc(C(=S)NC4CC4)cc3)cnc12 [Example 43, 4-{6-(Cyclohex-1-en-1-yl)-8-[(2-hydroxy-2-methylpropyl)amino]imidazo[1,2-b]pyridazin-3-yl}-N-cyclopropylbenzenecarbothioamide]
2.9	CC(C)CNc1cc(-c2ccsc2)nn2c(-c3ccc(C(=O)NC4CC4)cc3)cnc12 [Example 122, N-cyclopropyl-4-{8-[(2-methylpropyl)amino]-6-(thiophen-3-yl)imidazo [1,2-b]pyridazin-3-yl} benzamide]
40	CC(C)CNc1cc(-c2cc3ccccc3o2)nn2c(-c3ccc(C(=O)NC4CC4)cc3)cnc12 [Example 127, 4-{6-(1-Benzofuran-2-yl)-8-[(2-methylpropyl)amino]imidazo[1,2-b]pyridazin-3-yl}-N-cyclopropylbenzamide]
1.6	Cc1cc(-c2cnc3c(NCCC(F)(F)F)cc(N4CCCc5cccc(O)c54)nn23)ccc1C(=O)NC1CC1 [Example 467, N-cyclopropyl-4-{6-(8-hydroxy-3,4-dihydro-quinolin-1(2H)-yl)-8-[(3,3,3-trifluoropropyl)amino]imidazo[1,2-b]pyridazin-3-yl}-2-methyl-benzamide]
84.8	COc1cc(C(=O)NC2CC2)ccc1-c1cnc2c(NCC(C)(C)O)cc(-c3ccnn3C)nn12 [Example 50, N-cyclopropyl-4-{8-[(2-hydroxy-2-methylpropyl)amino]-6-(1-methyl-1H-pyrazol-5-yl)imidazo[1,2-b]pyridazin-3-yl}-3-methoxybenzamide]
0.5	Cc1cc(-c2cnc3c(NCC(C)(C)O)cc(Nc4ccc(F)c(F)c4)nn23)ccc1C(=O)NC1CC1 [Example 307, N-cyclopropyl-4-{6-[(3,4-difluorophenyl)amino]-8-[(2-hydroxy-2-methylpropyl)amino]imidazo[1,2-b]pyridazin-3-yl}-2-methylbenzamide]
< 1	Cc1cc(-c2cnc3c(NCCC(F)(F)F)cc(Sc4ccccc4)nn23)ccc1C(=O)NC1CC1 [Example 207, N-cyclopropyl-2-methyl-4-{6-(phenylsulfanyl)-8-[(3,3,3-trifluoropropyl)amino]imidazo[1,2-b]pyridazin-3-yl}benzamide]
0.7	CNc1cc(Oc2cccc(F)c2F)nn2c(-c3ccc(C(=O)NC4CC4)c(C)c3)cnc12 [Example 528, N-cyclopropyl-4-[6-(2,3-difluorophenoxy)-8-(methylamino)imidazo[1,2-b]pyridazin-3-yl]-2-methylbenzamide]
4.3	Cc1cc(-c2cnc3c(NCCC(C)CO)cc(-c4ccccc4CO)nn23)ccc1C(=O)NC1CC1 (racemic) [Example 343, (RS)-N-cyclopropyl-4-{8-[(4-hydroxy-3-methylbutyl)amino]-6-[2-(hydroxymethyl)phenyl]imidazo [1,2-b]pyridazin-3-yl}-2-methyl-benzamide]
0.1	Cc1cc(-c2cnc3c(NCC4CCS(=O)(=O)CC4)cc(Oc4ccccc4F)nn23)ccc1C(=O)NC1CC1 [Example 297, N-cyclopropyl-4-[8-{[(1,1-dioxidotetrahydro-2H-thiopyran-4-yl)methyl]amino}-6-(2-fluorophenoxy)imidazo[1,2-b]pyridazin-3-yl]-2-methylbenzamide]
0.2	Cc1cc(-c2cnc3c(NCCC(F)(F)F)cc(Nc4ccc(Cl)c(F)c4)nn23)ccc1C(=O)NC1CC1 [Example 372, 4-{6-[(4-chloro-3-fluorophenyl)amino]-8-[(3,3,3-trifluoropropyl)amino]imidazo[1,2-b]pyridazin-3-yl}-N-cyclopropyl-2-methylbenzamide]
1.2	C/C=C(\C)c1cc(NCCC(F)(F)F)c2ncc(-c3ccc(C(=O)NC4CC4)c(C)c3)n2n1 [Example 221, 4-{6-[(2E)-but-2-en-2-yl]-8-[(3,3,3-trifluoropropyl)amino]imidazo[1,2-b]pyridazin-3-yl}-N-cyclopropyl-2-methylbenzamide]
1.1	Cn1nccc1-c1cc(NCCC(F)(F)F)c2ncc(-c3ccc(C(=S)NC4CC4)cc3)n2n1 [Example 45, N-cyclopropyl-4-{6-(1-methyl-1H-pyrazol-5-yl)-8-[(3,3,3-trifluoropropyl)amino]imidazo[1,2-b]pyridazin-3-yl}benzenecarbothioamide]
0.7	CC(C)(O)CNc1cc(Sc2ccccc2)nn2c(-c3ccc(C(=S)NC4CC4)cc3)cnc12 [Example 245, N-cyclopropyl-4-{8-[(2-hydroxy-2-methylpropyl)amino]-6-(phenylsulfanyl)imidazo[1,2-b]pyridazin-3-yl}benzenecarbothioamide]
0.6	Cc1cc(F)cc(Sc2cc(NCCCC(F)(F)F)c3ncc(-c4ccc(C(=O)NC5CC5)c(C)c4)n3n2)c1 [Example 449, N-cyclopropyl-4-{6-[(3-fluoro-5-methylphenyl)sulfanyl]-8-[(4,4,4-trifluorobutyl)amino]imidazo[1,2-b]pyridazin-3-yl}-2-methylbenzamide]
< 1	CC(C)CNc1cc(-c2ccc(CO)cc2)nn2c(-c3ccc(C(=O)NC4CC4)cc3)cnc12 [Example 133, N-cyclopropyl-4-{6-[4-(hydroxymethyl)phenyl]-8-[(2-methylpropyl)amino]imidazo[1,2-b]pyridazin-3-yl}benzamide]
1.2	COc1ccccc1Sc1cc(NCCC(F)(F)F)c2ncc(-c3ccc(C(=O)NC4CC4)c(C)c3)n2n1 [Example 55, N-cyclopropyl-4-{6-[(2-methoxyphenyl)sulfanyl]-8-[(3,3,3-trifluoropropyl)amino]imidazo[1,2-b]pyridazin-3-yl}-2-methylbenzamide]
0.3	Cc1cc(-c2cnc3c(NCCC(F)(F)F)cc(Oc4ccccc4N)nn23)ccc1C(=O)NC1CC1 [Example 395, 4-{6-(2-aminophenoxy)-8-[(3,3,3-trifluoropropyl)amino]imidazo[1,2-b]pyridazin-3-yl}-N-cyclopropyl-2-methylbenzamide]
4.3	CNC(=O)c1ccc(-c2cnc3c(NCCN4CCOCC4)cc(Oc4ccccc4C)nn23)cc1C [Example 563, N,2-dimethyl-4-[6-(2-methylphenoxy)-8-{[2-(morpholin-4-yl)ethyl]amino}imidazo[1,2-b]pyridazin-3-yl]benzamide]
0.1	Cc1cc(-c2cnc3c(NCCC(F)(F)F)cc(Oc4cncc(F)c4)nn23)ccc1C(=O)NC1CC1 [Example 464, N-cyclopropyl-4-{6-[(5-fluoropyridin-3-yl)oxy]-8-[(3,3,3-trifluoropropyl)amino]imidazo[1,2-b]pyridazin-3-yl}-2-methylbenzamide]

Compound	IC50 [nM]
Cc1cc(-c2cnc3c(NCC(C)(C)O)cc(C4=CCNCC4)nn23)ccc1C(=O)NC1CC1 [Example 42, N-cyclopropyl-4-{8-[(2-hydroxy-2-methylpropyl)amino]-6-(1,2,3,6-tetrahydropyridin-4-yl)imidazo[1,2-b]pyridazin-3-yl}-2-methylbenzamide]	7.8
